Patent US4794124A, “Therapeutic composition for diabetic complications” (priority 1985, dated 1988)

Key:
lens sorbitol = assay: Sorbitol content of the lens in streptozotocin-induced diabetic rats; details: for Sorbitol content of the lens: n = 4-5
Method: Using male SD rats weighing about 100 g, experimental diabetes was induced by injecting 70 mg/kg of streptozotocin into the caudal vein.
The rats were divided into 2 groups of 10 individuals. A first group of rats were given a 10% aqueous solution of cysteine in a volume of 0.2 ml/100 g body weight twice daily (cysteine 400 mg/kg/day) by gastric gavage beginning the day before administration of streptozotocin. This group is referred to as the cysteine-treated group. A second group received tap water similarly. This group is referred to as the control group.

[1] = Time course of body weight in streptozotocin-induced diabetic rats; assay type: in vivo, male SD rats; details: long-term repeated administration, 400 mg/kg/day oral
Method: (§1) The effects of oral administration of cysteine in diabetic rats were investigated.
(§2) A second group received tap water similarly.
(§3) Blood glucose was determined 2 days and 11 weeks after administration of streptozotocin to confirm that the rats were in hyperglycemic condition. Further, body weight was determined periodically during the study period. After 11 weeks, the blood was withdrawn from the abdominal aorta for clinical serum chemical examination. Moreover, to monitor the cataract supervening in diabetes, the rat crystalline lens was periodically examined using a slit lamp.

diabetic rats [2] = assay: Blood glucose in streptozotocin-induced diabetic rats; assay type: in vivo, male SD rats; details: cysteine 400 mg/kg/day oral, n = 8-10, normal 220 ± 20
Method: as §1, §2, §3

diabetic rats [3] = assay: Clinical serum chemistry values at week 11 in streptozotocin-induced diabetic rats; assay type: in vivo, male SD rats; details: 400 mg/kg/day oral
Method: as §1, §2, §3

rat crystalline lens = assay: Progression of cataract in streptozotocin-induced diabetic rats (slit lamp, 7 stages); assay type: in vivo, male SD rats; details: 400 mg/kg/day oral
Method: as §2, §3
The progression of cataract was evaluated on the scale of the following 7 stages up to mature cataract.
0: No lens opacity at all
I: Slight opacity of the lens epithelium or small vacuoles in the equatorial region.
II: Vacuoles multiplying and merging to spread into the cortex.
III: The vacuoles pervading most of the cortex have begun to disappear.
IV: The majority of vacuoles have disappeared and the whole cortex is translucent.
V: Opacity of the lens nucleus.
VI: Opacity of the whole lens (mature cataract)
Then, cataract which is a diabetic complication ready to develop in such diabetic animal models was studied by monitoring the rats for 11 weeks.
The bar graphs in FIG. 1(a) through (f) show the time course of cataract stages. […]

With N[C@@H](CS)C(=O)O [cysteine] the “Accumulation of sorbitol in the lens, cysteine-treated vs control group” value (lens sorbitol; 2 and 3 weeks after streptozotocin) was “no significant difference”, the “Sorbitol content of the lens” value (lens sorbitol; after 2 weeks, control 0.996 ± 0.286) was 1.056 ± 0.166 μmole/lens and the “Sorbitol content of the lens” value (lens sorbitol; after 3 weeks, control 1.186 ± 0.164) was 1.025 ± 0.031 μmole/lens. For the same compound, the “Effect on body weight gain in diabetic rats” value [1] was “did not affect the body weight gain”, the Blood glucose (diabetic rats [2]; after 11 weeks, control 721 ± 75) was 767 ± 77 mg/dL and the Blood glucose (diabetic rats [2]; after 2 days, control 521 ± 78) was 559 ± 99 mg/dL. For the same compound, the “Serum chemical parameters (overall)” value (diabetic rats [3]) was “close to the normal values”, the Total bilirubin (diabetic rats [3]; n = 8-10, normal 0.2 ± 0.0, control 0.43 ± 0.23) was 0.28 ± 0.18 mg/dL and the Uric acid (diabetic rats [3]; n = 8-10, normal 1.8 ± 0.4, control 2.5 ± 2.5) was 1.5 ± 0.5 mg/dL. It also gave a γ-GTP (diabetic rats [3]; n = 8-10, normal 2.4 ± 2.0, control 42.9 ± 31.3) of 13.4 ± 7.2 U/L, a Lipid peroxide (diabetic rats [3]; n = 8-10, normal 3.95 ± 0.53, control 5.40 ± 0.68) of 4.48 ± 0.56 nmol/dL and an ALP (diabetic rats [3]; n = 8-10, normal 48 ± 8, control 83 ± 25) of 68 ± 26 KAU. The Total cholesterol (diabetic rats [3]; n = 8-10, normal 51 ± 6, control 175 ± 76) was 118 ± 57 mg/dL, the GPT (diabetic rats [3]; n = 8-10, normal 61 ± 27, control 450 ± 320) was 311 ± 184 U/L and the Neutral lipid (diabetic rats [3]; n = 8-10, normal 90 ± 25, control 1437 ± 858) was 645 ± 605 mg/dL. The GOT (diabetic rats [3]; n = 8-10, normal 102 ± 42, control 952 ± 1038) was 495 ± 358 U/L, the β-lipoprotein (diabetic rats [3]; n = 8-10, normal 112 ± 13, control 493 ± 233) was 299 ± 173 mg/dL and the LAP (diabetic rats [3]; n = 8-10, normal 199 ± 15, control 297 ± 78) was 234 ± 66 GRU. The TTT (diabetic rats [3]; thymol turbidity test, n = 8-10, normal 0.15 ± 0.05, control 3.94 ± 3.88) was 1.03 ± 0.90 U, the ZST (diabetic rats [3]; zinc sulfate test, n = 8-10, normal 1.2 ± 0.1, control 6.2 ± 4.8) was 2.6 ± 1.3 U and the “Progress of cataract compared with the control group” value (rat crystalline lens; any observation period (2, 4, 6, 8, 10, 11 weeks), FIG. 1) was “the progress of cataract was inhibited”. The “Effect on progression of cataract (cumulative variance analysis)” value (rat crystalline lens; p<0.0001 vs control) was “significant retarding effect on the progression of cataract”.
